Patent US9493444B2 (Merck Patent GmbH, priority 2012, dated 2016)
pIC50: −log10 of the molar value.

Each molecule was assayed on Wnt pathway (TCF-dependent transcription in HEK293 luciferase reporter cell line with ER-DSH construct) (assay: Cellular assay for Wnt pathway activity (luciferase reporter)). Settings: Homo sapiens; Wnt pathway inhibition, HEK293 luciferase reporter cells (ER-DSH, TCF promoter), 24 hours incubation, estrogen-induced.
Assay type: cell-based
Method in brief: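 Luminescent luciferase read-out after 24 h compound exposure at 1 nM to 30 μM, with TCF-driven transcription switched on by estrogen addition. IC50 values come from curve fits of data normalized against the vehicle-only control.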

CC(=O)N(C)CCN(C)c1cncc(Oc2ccc(C(=O)N3CCCC(c4cccn4C)=N3)cc2)n1 [Compound 126, N-Methyl-N-{2-[methyl-(6-{4-[3-(1-methyl-1H-pyrrol-2-yl)-5,6-dihydro-4H-pyridazine-1-carbonyl]-phenoxy}-pyrazin-2-yl)-amino]-ethyl} acetamide] and CCc1ccc(C2=NN(C(=O)c3ccc(Oc4cncc(N(C)CCN(C)C(C)=O)n4)cc3)CCC2)cc1 [Compound 148, N-{2-[(6-{4-[3-(4-Ethyl-phenyl)-5,6-dihydro-4H-pyridazine-1-carbonyl]-phenoxy}-pyrazin-2-yl)-methyl-amino]-ethyl}-N-methyl-acetamide] fall in the same range of pIC50: 5.00 to 6.00 for the first, 5.00 to 6.00 for the second.

First: CC(=O)N(C)CCCc1cncc(Oc2ccc(-c3cccc(N4CCN(C)CC4)n3)cc2)c1 [Compound 316, N-Methyl-N-[3-(5-{4-[6-(4-methyl-piperazin-1-yl)-pyridin-2-yl]-phenoxy}-pyridin-3-yl)-propyl]-acetamide]
Second: CC(=O)N(C)CCCc1cncc(Oc2ccc(-c3cccc(N4CCN(C)CC4)n3)cc2)n1 [Compound 217, N-Methyl-N-[3-(6-{4-[6-(4-methyl-piperazin-1-yl)-pyridin-2-yl]-phenoxy}-pyrazin-2-yl)-propyl]-acetamide]
The pIC50 of the first is lower: 5.00 to 6.00 for the first, 6.00 to 6.70 for the second. The second is the more potent here.

Compared with CC(=O)N(C)CCN(C)c1cncc(Oc2ccc(-c3cc4cc[nH]c4cn3)cc2)n1 [Compound 190, N-Methyl-N-[2-(methyl-{6-[4-(1H-pyrrolo[2,3-c]pyridin-5-yl)-phenoxy]-pyrazin-2-yl}-amino)-ethyl]-acetamide], CC(=O)N(C)CCN(C)c1cncc(Oc2ccc3[nH]ccc3c2)n1 [Compound 106, N-(2-{[6-(1H-Indol-5-yloxy)-pyrazin-2-yl]-methyl-amino}-ethyl)-N-methyl-acetamide] is lower in pIC50: > 6.70 for the first, 6.00 to 6.70 for the second. The first is the more potent here.

CC(=O)N(C)CCNc1cncc(Oc2ccc(-c3cncc(S(C)(=O)=O)c3)cc2)n1 [Compound 275, N-(2-{6-[4-(5-Methane-sulfonyl-pyridin-3-yl)-phenoxy]-pyrazin-2-ylamino}-ethyl)-N-methyl-acetamide] and CC(=O)N(C)CCNc1cncc(Oc2ccc(-c3ccncc3)cc2)n1 [Compound 255, N-Methyl-N-{2-[6-(4-pyridin-4-yl-phenoxy)-pyrazin-2-ylamino]-ethyl}-acetamide] fall in the same range of pIC50: 5.00 to 6.00 for the first, 5.00 to 6.00 for the second.

CC(=O)N(C)CCN(C)c1cncc(Oc2ccc(-c3ccnc(F)c3)cc2)n1 [Compound 210, N-[2-({6-[4-(2-Fluoro-pyridin-4-yl)-phenoxy]-pyrazin-2-yl}-methyl-amino)-ethyl]-N-methyl-acetamide] and CC(=O)N(C)CCN(C)c1cncc(Oc2ccc(-c3cccc(C)n3)cc2)n1 [Compound 160, N-Methyl-N-[2-(methyl-{6-[4-(6-methyl-pyridin-2-yl)-phenoxy]-pyrazin-2-yl}-amino)-ethyl]-acetamide] cannot be ordered by pIC50: > 6.70 for the first, > 6.70 for the second.

Compared with CC(=O)N(C)CCN(C)c1cncc(Oc2ccc(OC(F)(F)F)cc2)n1 [Compound 131, N-Methyl-N-(2-{methyl-[6-(4-trifluoro-methoxy)-pyrazin-2-yl]-amino}-ethyl)-acetamide], CC(=O)N(C)CCN(C)c1cncc(Oc2ccc(Cl)cc2)n1 [Compound 36, N-(2-{[6-(4-Chloro-phenoxy)-pyrazin-2-yl]-methyl-amino}-ethyl)-N-methyl-acetamide] is lower in pIC50: > 6.70 for the first, 6.00 to 6.70 for the second. The first is the more potent here.

Compared with CC(=O)N(C)CCCc1cncc(Oc2ccc(-c3ccc(N)cn3)cc2F)n1 [Compound 282, N-(3-{6-[4-(5-Amino-pyridin-2-yl)-2-fluoro-phenoxy]-pyrazin-2-yl}-propyl)-N-methyl-acetamide], CC(=O)N(C)CCCc1cncc(Oc2ccc(-c3ccncc3)cc2F)n1 [Compound 270, N-{3-[6-(2-Fluoro-4-pyridin-4-yl-phenoxy)-pyrazin-2-yl]-propyl}-N-methyl-acetamide] is lower in pIC50: > 6.70 for the first, 6.00 to 6.70 for the second. The first is the more potent here.

Compared with CC(=O)Nc1ccc(-c2ccc(Oc3cncc(CCCN(C)C(C)=O)n3)cc2)cn1 [Compound 219, N-(3-{6-[4-(6-Acetylamino-pyridin-3-yl)-phenoxy]-pyrazin-2-yl}-propyl)-N-methyl-acetamide], CC(=O)Nc1ccc(-c2ccc(Oc3cncc(N(C)CCN(C)C(C)=O)n3)c(F)c2)cn1 [Compound 225, N-[2-({6-[4-(6-Acetylamino-pyridin-3-yl)-2-fluoro-phenoxy]-pyrazin-2-yl}-methyl-amino)-ethyl]-N-methyl-acetamide] is higher in pIC50: 6.00 to 6.70 for the first, > 6.70 for the second.

First: CC(=O)N(C)CCCc1cncc(Oc2ccc(F)cc2)n1 [Compound 264, N-{3-[6-(4-Fluoro-phenoxy)-pyrazin-2-yl]-propyl}-N-methyl-acetamide]
Second: CCN(CCN(C)c1cncc(Oc2ccc(F)cc2)n1)C(C)=O [Compound 90, N-Ethyl-N-(2-{[6-(4-fluoro-phenoxy)-pyrazin-2-yl]-methyl-amino}-ethyl)-acetamide]
The pIC50 of the first is lower: 5.00 to 6.00 for the first, > 6.70 for the second. The second is the more potent here.

CC(=O)N(C)CCN(C)c1cncc(Oc2ccc(-c3ccc(F)cn3)cc2F)n1 [Compound 226, N-[2-({6-[2-Fluoro-4-(5-fluoro-pyridin-2-yl)-phenoxy]-pyrazin-2-yl}-methyl-amino)-ethyl]-N-methyl-acetamide] and CC(=O)N(C)CCN(C)c1cncc(Oc2ccc(-c3ccc(C)cn3)cc2F)n1 [Compound 229, N-[2-({6-[2-Fluoro-4-(5-methyl-pyridin-2-yl)-phenoxy]-pyrazin-2-yl}-methyl-amino)-ethyl]-N-methyl-acetamide] cannot be ordered by pIC50: > 6.70 for the first, > 6.70 for the second.

CC(=O)N(C)CCN(C)c1cncc(Oc2ccc(-c3ccc(CCNC(=O)CCCCCNC(=O)CCCCC4SCC5NC(=O)NC54)cc3)cc2)n1 (stereo not shown) [Compound 271, 6-[5-(2-Oxo-hexahydro-thieno[3,4-d]imidazol-6-yl)-pentanoyl-amino]-hexanoic acid {2-[4′-(6-{[2-(acetyl-methyl-amino)-ethyl]-methyl-amino}-pyrazin-2-yloxy)-biphenyl-4-yl]-ethyl}-amide] and CC(=O)N(C)CCN(C)c1cncc(Oc2ccc(-c3ccccc3S(C)(=O)=O)cc2)n1 [Compound 150, N-(2-{[6-(2′-Methane-sulfonyl-biphenyl-4-yloxy)-pyrazin-2-yl]-methyl-amino}-ethyl)-N-methyl-acetamide] cannot be ordered by pIC50: > 6.70 for the first, > 6.70 for the second.

Compared with CC(=O)N(C)CCNc1cncc(Oc2ccc(-c3ccc(CO)cn3)cc2)n1 [Compound 293, N-(2-{6-[4-(5-Hydroxy-methyl-pyridin-2-yl)-phenoxy]-pyrazin-2-ylamino}-ethyl)-N-methyl-acetamide], CC(=O)N(C)CCNc1cncc(Oc2ccc(-c3ccc(F)cn3)cc2)n1 [Compound 262, N-(2-{6-[4-(5-Fluoro-pyridin-2-yl)-phenoxy]-pyrazin-2-ylamino}-ethyl)-N-methyl-acetamide] is lower in pIC50: 6.00 to 6.70 for the first, 5.00 to 6.00 for the second. The first is the more potent here.

CC(=O)N(C)CCN(C)c1cncc(Oc2ccc(-c3cccc(S(C)(=O)=O)n3)cc2)n1 [Compound 206, N-[2-({6-[4-(6-Methane-sulfonyl-pyridin-2-yl)-phenoxy]-pyrazin-2-yl}-methyl-amino)-ethyl]-N-methyl-acetamide] and CC(=O)N(C)CCN(C)c1cncc(Oc2ccc(-c3cccc(N)n3)cc2)n1 [Compound 205, N-[2-({6-[4-(6-Amino-pyridin-2-yl)-phenoxy]-pyrazin-2-yl}-methyl-amino)-ethyl]-N-methyl-acetamide] cannot be ordered by pIC50: > 6.70 for the first, > 6.70 for the second.

First: CNCCN(C)c1cncc(OC2CCCCC2)n1 [Compound 46, N-(6-Cyclo-hexyloxy-pyrazin-2-yl)-N,N′-dimethyl-ethane-1,2-diamine]
Second: CC(=O)N(C)CCN(C)c1cncc(Oc2ccc(C)nc2)n1 [Compound 246, N-Methyl-N-(2-{methyl-[6-(6-methyl-pyridin-3-yloxy)-pyrazin-2-yl]-amino}-ethyl)-acetamide]
The pIC50 of the first is higher: 6.00 to 6.70 for the first, 5.00 to 6.00 for the second.

First: CC(=O)N(C)CCN(C)c1cncc(Oc2ccc(-c3ccncc3C#N)cc2)n1 [Compound 144, N-[2-({6-[4-(3-Cyano-pyridin-4-yl)-phenoxy]-pyrazin-2-yl}-methyl-amino)-ethyl]-N-methyl-acetamide]
Second: CC(=O)N(C)CCN(C)c1cncc(Oc2ccc(C(N)=O)cc2)n1 [Compound 143, 4-(6-{[2-(Acetyl-methyl-amino)-ethyl]-methyl-amino}-pyrazin-2-yloxy)-benzamide]
The pIC50 of the first is higher: > 6.70 for the first, 6.00 to 6.70 for the second.

CC(=O)N1CCCC1CNc1cncc(Oc2ccc(F)cc2)n1 (stereo not shown) [Compound 62, 1-(2-{[6-(4-Fluoro-phenoxy)-pyrazin-2-ylamino]-methyl}-pyrrolidin-1-yl)-ethanone] and O=C1OCCN1CCNc1cncc(Oc2ccc(F)cc2)n1 [Compound 277, 3-{2-[6-(4-Fluoro-phenoxy)-pyrazin-2-ylamino]-ethyl}-oxazolidin-2-one] fall in the same range of pIC50: 5.00 to 6.00 for the first, 5.00 to 6.00 for the second.

First: CC(=O)N(C)CCNc1cncc(Oc2ccc(-c3ccncc3C#N)cc2F)n1 [Compound 257, N-(2-{6-[4-(3-Cyano-pyridin-4-yl)-2-fluoro-phenoxy]-pyrazin-2-ylamino}-ethyl)-N-methyl-acetamide]
Second: COc1ccc(-c2ccc(Oc3cncc(N(C)CCN(C)C(C)=O)n3)c(F)c2)nc1 [Compound 227, N-[2-({6-[2-Fluoro-4-(5-methoxy-pyridin-2-yl)-phenoxy]-pyrazin-2-yl}-methyl-amino)-ethyl]-N-methyl-acetamide]
The pIC50 of the first is lower: 6.00 to 6.70 for the first, > 6.70 for the second. The second is the more potent here.

First: Cc1ccc(-c2ccc(Oc3cncc(NCCC(N)=O)n3)cc2)nc1 [Compound 298, 3-{6-[4-(5-Methyl-pyridin-2-yl)-phenoxy]-pyrazin-2-ylamino}-propionamide]
Second: COc1ccc(Oc2cncc(NCCN(C)C(C)=O)n2)cc1 [Compound 67, N-{2-[6-(4-Methoxy-phenoxy)-pyrazin-2-ylamino]-ethyl}-N-methyl-acetamide]
The pIC50 of the first is higher: 6.00 to 6.70 for the first, 5.00 to 6.00 for the second. The first is the more potent here.

In the case of COc1ccc(Oc2cncc(N(C)CCN(C)C(=O)Cc3sccc3Cl)n2)cc1 [Compound 53, 2-(3-Chloro-thiophen-2-yl)-N-(2-{[6-(4-methoxy-phenoxy)-pyrazin-2-yl]-methyl-amino}-ethyl)-N-methyl-acetamide], the pIC50 was 5.00 to 6.00.
